# Tests used:
# [1] = target: T1, PDK1 (Homo sapiens, UniProt O15530); assay: PDK1 activity assay with T308tide and [γ32P]ATP; format: biochemical; design: made in house; host or cells: HEK293 (GST fusion) or Sf9 insect cells (His form); details: full-length PDK1
# T1 sequence (O15530 1-556): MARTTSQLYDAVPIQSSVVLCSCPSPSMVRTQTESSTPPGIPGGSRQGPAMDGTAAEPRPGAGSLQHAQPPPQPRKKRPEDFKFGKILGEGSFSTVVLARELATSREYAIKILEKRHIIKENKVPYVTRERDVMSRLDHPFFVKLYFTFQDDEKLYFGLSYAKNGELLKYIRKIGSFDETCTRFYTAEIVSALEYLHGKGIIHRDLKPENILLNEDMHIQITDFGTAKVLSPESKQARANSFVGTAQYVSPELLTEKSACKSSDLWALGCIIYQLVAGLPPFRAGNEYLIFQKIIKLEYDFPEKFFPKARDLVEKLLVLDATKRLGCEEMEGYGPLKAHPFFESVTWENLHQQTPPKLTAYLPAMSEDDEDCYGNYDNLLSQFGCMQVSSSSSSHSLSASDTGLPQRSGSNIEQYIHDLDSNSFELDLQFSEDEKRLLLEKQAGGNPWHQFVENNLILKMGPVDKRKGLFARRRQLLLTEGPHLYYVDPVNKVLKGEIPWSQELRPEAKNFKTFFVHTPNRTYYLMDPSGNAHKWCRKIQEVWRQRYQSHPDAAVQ
# Protocol: The PDK1 activity assay using T308tide as a substrate was performed essentially as previously described ([18], [28], [54]). In brief, the assay was performed in a 20 μl format containing 50 mM Tris pH 7.5, 0.05 mg/ml BSA, 0.1% ß-mercaptoethanol, 10 mM MgCl2, 100 μM [γ^32P]ATP (5-50 cpm/pmol), 0.003% Brij, 150-500 ng PDK1, and T308tide (0.3 mM) at room temperature. The assay was performed in 96 well plated and stopped by the addition of 5 μl of 0.1 % phosphoric acid. 4 μl aliquots were spotted on p81 phosphocellulose papers (Whatmann) using ep motion 5070 (Eppendorf). The phosphocellulose papers were washed in 0.01% phosphoric acid, dried, and exposed using PhosphoImager (FLA-9000 Starion). Data were analyzed with ImageQuant software (Fujifilm). Activity measurements were performed in technical duplicates or triplicates with less than 10% difference between replicates. Experiments were repeated at least twice. The activity measurements of PDK1 towards GS-022 and GS-023 were performed similarly, with the GS-peptides replacing T308tide at the indicated concentrations. GS-022 and GS-023 have features consistent with the loose characteristics disclosed for the peptide Ser/Thr 07, ((R/K)1-3(X)0-2 (S/T) (X)0-2(R/K)1-3, where X is any residue) used by the commercial “PDK1 Direct” assay.
# [2] = target: T2, PDK1_50-359 (Homo sapiens, UniProt O15530); assay: Differential scanning fluorimetry, thermal stability of PDK1_50-359 (catalytic domain); format: binding
# T2 construct: His (N); made in house; host or cells: insect cells (stated for the crystallography batch)
# T2 sequence (O15530 50-359): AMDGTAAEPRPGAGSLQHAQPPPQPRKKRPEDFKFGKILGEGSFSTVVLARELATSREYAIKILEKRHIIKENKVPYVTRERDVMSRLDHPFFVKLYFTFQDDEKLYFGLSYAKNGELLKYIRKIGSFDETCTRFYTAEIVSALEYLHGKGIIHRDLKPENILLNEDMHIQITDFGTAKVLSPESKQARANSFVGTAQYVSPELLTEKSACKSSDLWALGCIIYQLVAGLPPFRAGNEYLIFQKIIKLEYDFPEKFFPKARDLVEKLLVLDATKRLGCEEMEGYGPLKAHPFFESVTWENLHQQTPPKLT
# Protocol: The thermal stability of PDK1 was assessed by monitoring the unfolding of PDK1 by the increase in the fluorescence of SYPRO Orange (Invitrogen) using a real-time PCR device (StepOnePlus, Applied Biosystems and BioRad CFX96) following a previously described protocol ([70]). The reactions were performed in a final volume of 10 μl in white 96-well PCR microtiter plates (Greiner) and contained 1 μM PDK1, 10 mM HEPES (pH 7.5), 150 mM NaCl, 1/1000 SYPRO Orange and 1 mM dithiothreitol. For valsartan, the assay buffer was modified to exclude NaCl. PIFtide or compounds (at a final DMSO concentration of 1%) were added to this reaction mixture. The temperature gradient was performed in steps of 0.3 °C in the range from 25 to 70 °C. To calculate the Tm values, data were exported to GraphPad Prism and curves fitted to a Boltzmann sigmoidal equation with an acceptable confidence interval of 95%. Statistical analysis was performed with Infostat software (http://www.infostat.com.ar) and GraphPad Prism by first verifying a normal distribution of pooled residuals (Shapiro-Wilks test) and homogeneity of variance (F test), and then performing a one-way ANOVA followed by the post hoc comparisons test indicated in each figure legend.
compound,measurement,setting,value
"O=C(O[C@H]1[C@@H](OP(=O)(O)O)[C@H](OP(=O)(O)O)[C@@H](OP(=O)(O)O)[C@H](OP(=O)(O)O)[C@H]1OP(=O)(O)O)c1ccccc1 [HYG8, 2-O-benzoyl-IP5]",effect on activity of full-length PDK1 toward T308tide,[1],partially inhibited
same,effect on thermal stability of PDK1_50-359 (catalytic domain),[2],without affecting
